Assay results: patent US10934310B2, “Inhibitors of Bruton's tyrosine kinase and method of their use” (JANSSEN PHARMACEUTICA NV, priority 2015, dated 2021)

These compounds were tested against unphosphorylated-BTK kinase domain (UP-BTK), GST-tagged human BTK (389-659aa) (Homo sapiens (Human), UniProt Q06187) (assay: BTK Kinase Lanthascreen Binding Assay). Settings: Lanthascreen binding, 60 minutes incubation; pIC50 = negative log of the IC50 in molar.
Experimental: BTK Kinase Lanthascreen Binding Assay:
A BTK kinase lanthascreen binding assay monitors compound binding to unphosphorylated-BTK kinase domain (UP-BTK), by competing with a fluorescent labeled tracer. […] Data were analyzed using Xlfit™ version 5.3 from ID Business Solutions (Guildford), Microsoft Excel add-in. pIC50 refers to the negative log of the IC50 in molar.

Sequence of unphosphorylated-BTK kinase domain (UP-BTK), GST-tagged human BTK (389-659aa) (Q06187 389-659): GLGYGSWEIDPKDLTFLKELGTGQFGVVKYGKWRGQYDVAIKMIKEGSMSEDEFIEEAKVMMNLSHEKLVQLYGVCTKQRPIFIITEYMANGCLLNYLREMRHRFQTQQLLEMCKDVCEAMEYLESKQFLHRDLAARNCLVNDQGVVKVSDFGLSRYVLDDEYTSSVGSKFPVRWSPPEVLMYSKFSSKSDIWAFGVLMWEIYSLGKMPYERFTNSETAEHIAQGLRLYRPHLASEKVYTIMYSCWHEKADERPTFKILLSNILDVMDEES

BTK_I_binding pIC50	Compound
5.89	CN[C@H]1CCN(C(=O)c2sc3nccc4c3c2NC(=O)N4c2ccc(Oc3ccccc3)cc2C)C1 [Example 417, (S)-5-(2-Methyl-4-phenoxyphenyl)-2-(3-(methylamino)pyrrolidine-1-carbonyl)-3H-1-thia-3,5,8-triazaacenaphthylen-4(5H)-one]
7.76	C=CC(=O)N[C@H]1CCC[C@H]1NC(=O)c1sc2nccc3c2c1NC(=O)N3c1ccc(Oc2cccnn2)cc1C (single isomer, unassigned) [Example 424, N-((1R,2S)-2-Acrylamidocyclopentyl)-5-(*S)-(2-methyl-4-(pyridazin-3-yloxy)phenyl)-4-oxo-4,5-dihydro-3H-1-thia-3,5,8-triazaacenaphthylene-2-carboxamide]

Same assay, conditions: compound, 50 nM Tracer 236, 2 nM anti-GST antibody, 60 minutes; pIC50 = negative log of the IC50 in molar

Compound	BTK_I_binding pIC50
CCC(=O)N[C@@H]1CC[C@H](NC(=O)c2sc3nccc4c3c2NC(=O)N4c2ccc(Oc3ccccc3)cc2C)C1 (single isomer, unassigned) [Example 87, 5-(*S)-(2-Methyl-4-phenoxyphenyl)-4-oxo-N-((1S,3R)-3-propionamidocyclopentyl)-4,5-dihydro-3H-1-thia-3,5,8-triazaacenaphthylene-2-carboxamide]	7.87
CC(=O)N[C@@H]1CCC[C@H](NC(=O)c2sc3nccc4c3c2NC(=O)N4c2ccc(Oc3ccccc3)cc2C)C1 (single isomer, unassigned) [Example 180, N-((1S,3R)-3-Acetamidocyclohexyl)-5-(*S)-(2-methyl-4-phenoxyphenyl)-4-oxo-4,5-dihydro-3H-1-thia-3,5,8-triazaacenaphthylene-2-carboxamide]	7.94
Cc1cc(Oc2ccccc2)ccc1N1C(=O)Nc2c(C(=O)N[C@@H]3CCC[C@H]3N(C)C)sc3nccc1c23 [Example 29, N-((1R,2R)-2-(Dimethylamino)cyclopentyl)-5-(2-methyl-4-phenoxyphenyl)-4-oxo-4,5-dihydro-3H-1-thia-3,5,8-triazaacenaphthylene-2-carboxamide]	6.81

The next lines start with the values.

BTK_I_binding pIC50	Compound
8.18	C=CC(=O)N[C@@H]1CCC[C@H]1NC(=O)c1sc2nccc3c2c1NC(=O)N3c1cnc(Oc2ccccc2)cc1C (single isomer, unassigned) [Example 200, N-((1R,2R)-2-Acrylamidocyclopentyl)-5-(*S)-(4-methyl-6-phenoxypyridin-3-yl)-4-oxo-4,5-dihydro-3H-1-thia-3,5,8-triazaacenaphthylene-2-carboxamide]
6.47	N[C@H]1CCCC[C@H]1NC(=O)c1sc2nccc3c2c1NC(=O)N3c1ccc(Oc2ccccc2)nc1 [Example 257, N-((1R,2S)-2-Aminocyclohexyl)-4-oxo-5-(6-phenoxypyridin-3-yl)-4,5-dihydro-3H-1-thia-3,5,8-triazaacenaphthylene-2-carboxamide]
7.56	C=CC(=O)N[C@@H]1CCC[C@H]1NC(=O)c1sc2nccc3c2c1NC(=O)N3c1ccc(Oc2ccccc2)cn1 [Example 185, N-((1R,2R)-2-Acrylamidocyclopentyl)-4-oxo-5-(5-phenoxypyridin-2-yl)-4,5-dihydro-3H-1-thia-3,5,8-triazaacenaphthylene-2-carboxamide]

Same assay, conditions: read-out: BTK_I_binding pIC50 (converted)

IC50 [nM]	Compound
120	Cc1cc(Oc2ccccc2)ccc1N1C(=O)Nc2c(C(=O)N[C@@H]3CCC[C@@H]3N(C)C)sc3nccc1c23 [Example 17, N-((1R,2S)-2-(Dimethylamino)cyclopentyl)-5-(2-methyl-4-phenoxyphenyl)-4-oxo-4,5-dihydro-3H-1-thia-3,5,8-triazaacenaphthylene-2-carboxamide]
